Assays:
Experiment in all cases: Twenty-four hour biofilm growth (crystal violet)
Format in all cases: cell-based
A. viscosus = test system: A. viscosus
Protocol: (§1) The increase in biofilm formation of the tested bacteria in response to selected saccharides (D-turanose, D-lactitol, myo-inositol, and N-acetyl-D-mannosamine) was investigated by setting up biofilm growth assays in a nutritionally rich medium (brain heart infusion broth (BHI), Oxoid), over 24 hours. Late exponential growth phase liquid cultures were prepared by transferring the respective bacterium from blood agar plates to BHI and overnight incubation at 37° C. in an anaerobic atmosphere for A. viscosus, V. parvula, P. gingivalis, P. intermedia, T. forsythia, A. naeslundii, and C. sputigena, and in a 5% CO2 environment for S. salivarius, S. sanguinis, S. mitis, A. actinomycetemcomitans, S. mutans, and S. gordonii. Overnight cultures were transferred to BHI and adjusted to a concentration of 1×10^7 CFU/ml by measuring the optical density at 600 nm (OD600) (BioRad SmartSpec 3000). For each strain, 200 μl of the bacterial suspension was added to a 96-well plate containing 20 μl of the respective saccharides. Final concentrations of the saccharides were set to 5, 10, 20 and 25 μmol/ml. […] Additionally, for each bacterium tested, a background control, to correct for background staining, was added. This background control contained the bacterium tested and 0.03 weight % chlorhexidine, as an antiseptic. Plates were incubated as previously described. After 24 hrs the supernatant was removed from the wells of the plates. The wells were washed twice with 1×100 μL PBS (phosphate buffered saline), fixed for 20 minutes with 96% vol. ethanol (96% vol. solution in water) and the biofilm retained at the bottom of the wells was stained with 1 weight % crystal violet (1 weight % solution in water). The bound dye was dissolved with 5% vol. acetic acid (5% vol. solution in water). Quantification of the stained biofilm was performed by measuring the absorbance at 630 nm using a Multiskan Ascent microplate reader (Thermo Scientific).
(§2) The experiment was carried out on three different days (thus providing 3 biological replicas) and each day the experiment was carried out in quadruple (thus providing 4 technical replicas) for each combination of bacterium with saccharide and for each control. For each day and for each combination, the average (mean) of the values obtained (as detailed above) for the four technical replicas was calculated to provide a single value for each combination on each day. The values shown in Tables 7a, 7b, 8a, 8b, below, are the average (mean) of the three single values obtained for each combination of bacterium with saccharide.

C. sputigena = test system: C. sputigena
Protocol: as §1, §2

P. intermedia = test system: P. intermedia
Protocol: as §1, §2

S. gordonii = test system: S. gordonii
Protocol: as §1, §2

P. gingivalis = test system: P. gingivalis
Protocol: as §1, §2

S. salivarius = test system: S. salivarius
Protocol: as §1, §2

S. mitis = test system: S. mitis
Protocol: as §1, §2

V. parvula = test system: V. parvula
Protocol: as §1, §2

A. naeslundii = test system: A. naeslundii
Protocol: as §1, §2

S. sanguinis = test system: S. sanguinis
Protocol: as §1, §2

A. actinomycetemcomitans = test system: A. actinomycetemcomitans
Protocol: as §1, §2

T. forsythia = test system: T. forsythia
Protocol: as §1, §2

S. mutans = settings: for biofilm growth: OD 630 nm at 24 hrs divided by OD of control (control = 1): S mutans
Protocol: as §1, §2

OC[C@@H](O)[C@@H](O[C@H]1O[C@H](CO)[C@H](O)[C@H](O)[C@H]1O)[C@H](O)[C@@H](O)CO [D-Lactitol, 4-O-α-D-galactopyranosyl-D-glucitol]
biofilm growth: OD 630 nm at 24 hrs divided by OD of control (control = 1) (A. viscosus; 5 μmol/ml): 0.6832 | biofilm growth: OD 630 nm at 24 hrs divided by OD of control (control = 1) (A. viscosus; 10 μmol/ml): 0.7502 | biofilm growth: OD 630 nm at 24 hrs divided by OD of control (control = 1) (A. viscosus; 20 μmol/ml): 0.9528 | biofilm growth: OD 630 nm at 24 hrs divided by OD of control (control = 1) (A. viscosus; 25 μmol/ml): 0.9153 | biofilm growth: OD 630 nm at 24 hrs divided by OD of control (control = 1) (C. sputigena; 5 μmol/ml): 0.5867 | biofilm growth: OD 630 nm at 24 hrs divided by OD of control (control = 1) (C. sputigena; 10 μmol/ml): 0.5658 | biofilm growth: OD 630 nm at 24 hrs divided by OD of control (control = 1) (C. sputigena; 20 μmol/ml): 0.6841 | biofilm growth: OD 630 nm at 24 hrs divided by OD of control (control = 1) (C. sputigena; 25 μmol/ml): 0.7591 | biofilm growth: OD 630 nm at 24 hrs divided by OD of control (control = 1) (P. intermedia; 5 μmol/ml): 1.0504 | biofilm growth: OD 630 nm at 24 hrs divided by OD of control (control = 1) (P. intermedia; 10 μmol/ml): 1.0396 | biofilm growth: OD 630 nm at 24 hrs divided by OD of control (control = 1) (P. intermedia; 20 μmol/ml): 1.1500 | biofilm growth: OD 630 nm at 24 hrs divided by OD of control (control = 1) (P. intermedia; 25 μmol/ml): 1.1288 | biofilm growth: OD 630 nm at 24 hrs divided by OD of control (control = 1) (S. gordonii; 5 μmol/ml): 0.6036 | biofilm growth: OD 630 nm at 24 hrs divided by OD of control (control = 1) (S. gordonii; 10 μmol/ml): 0.5959 | biofilm growth: OD 630 nm at 24 hrs divided by OD of control (control = 1) (S. gordonii; 20 μmol/ml): 0.4885 | biofilm growth: OD 630 nm at 24 hrs divided by OD of control (control = 1) (S. gordonii; 25 μmol/ml): 0.5149 | biofilm growth: OD 630 nm at 24 hrs divided by OD of control (control = 1) (P. gingivalis; 5 μmol/ml): 0.9536 | biofilm growth: OD 630 nm at 24 hrs divided by OD of control (control = 1) (P. gingivalis; 10 μmol/ml): 0.9616 | biofilm growth: OD 630 nm at 24 hrs divided by OD of control (control = 1) (P. gingivalis; 20 μmol/ml): 0.8995 | biofilm growth: OD 630 nm at 24 hrs divided by OD of control (control = 1) (P. gingivalis; 25 μmol/ml): 0.9701 | biofilm growth: OD 630 nm at 24 hrs divided by OD of control (control = 1) (S. salivarius; 5 μmol/ml): 2.1471 | biofilm growth: OD 630 nm at 24 hrs divided by OD of control (control = 1) (S. salivarius; 10 μmol/ml): 4.8849 | biofilm growth: OD 630 nm at 24 hrs divided by OD of control (control = 1) (S. salivarius; 20 μmol/ml): 5.5726 | biofilm growth: OD 630 nm at 24 hrs divided by OD of control (control = 1) (S. salivarius; 25 μmol/ml): 6.4158 | biofilm growth: OD 630 nm at 24 hrs divided by OD of control (control = 1) (S. mitis; 5 μmol/ml): 0.6696 | biofilm growth: OD 630 nm at 24 hrs divided by OD of control (control = 1) (S. mitis; 10 μmol/ml): 0.5919 | biofilm growth: OD 630 nm at 24 hrs divided by OD of control (control = 1) (S. mitis; 20 μmol/ml): 0.8007 | biofilm growth: OD 630 nm at 24 hrs divided by OD of control (control = 1) (S. mitis; 25 μmol/ml): 0.8340 | biofilm growth: OD 630 nm at 24 hrs divided by OD of control (control = 1) (V. parvula; 5 μmol/ml): 1.0022 | biofilm growth: OD 630 nm at 24 hrs divided by OD of control (control = 1) (V. parvula; 10 μmol/ml): 1.0212 | biofilm growth: OD 630 nm at 24 hrs divided by OD of control (control = 1) (V. parvula; 20 μmol/ml): 0.9658 | biofilm growth: OD 630 nm at 24 hrs divided by OD of control (control = 1) (V. parvula; 25 μmol/ml): 0.9859 | biofilm growth: OD 630 nm at 24 hrs divided by OD of control (control = 1) (A. naeslundii; 5 μmol/ml): 1.0191 | biofilm growth: OD 630 nm at 24 hrs divided by OD of control (control = 1) (A. naeslundii; 10 μmol/ml): 1.0015 | biofilm growth: OD 630 nm at 24 hrs divided by OD of control (control = 1) (A. naeslundii; 20 μmol/ml): 1.0337 | biofilm growth: OD 630 nm at 24 hrs divided by OD of control (control = 1) (A. naeslundii; 25 μmol/ml): 1.0428 | biofilm growth: OD 630 nm at 24 hrs divided by OD of control (control = 1) (S. sanguinis; 5 μmol/ml): 1.2160 | biofilm growth: OD 630 nm at 24 hrs divided by OD of control (control = 1) (S. sanguinis; 10 μmol/ml): 1.5548 | biofilm growth: OD 630 nm at 24 hrs divided by OD of control (control = 1) (S. sanguinis; 20 μmol/ml): 1.8523 | biofilm growth: OD 630 nm at 24 hrs divided by OD of control (control = 1) (S. sanguinis; 25 μmol/ml): 2.2341 | biofilm growth: OD 630 nm at 24 hrs divided by OD of control (control = 1) (A. actinomycetemcomitans; 5 μmol/ml): 0.6593 | biofilm growth: OD 630 nm at 24 hrs divided by OD of control (control = 1) (A. actinomycetemcomitans; 10 μmol/ml): 0.6496 | biofilm growth: OD 630 nm at 24 hrs divided by OD of control (control = 1) (A. actinomycetemcomitans; 20 μmol/ml): 0.8502 | biofilm growth: OD 630 nm at 24 hrs divided by OD of control (control = 1) (A. actinomycetemcomitans; 25 μmol/ml): 0.8372 | biofilm growth: OD 630 nm at 24 hrs divided by OD of control (control = 1) (T. forsythia; 5 μmol/ml): 0.5843 | biofilm growth: OD 630 nm at 24 hrs divided by OD of control (control = 1) (T. forsythia; 10 μmol/ml): 0.5942 | biofilm growth: OD 630 nm at 24 hrs divided by OD of control (control = 1) (T. forsythia; 20 μmol/ml): 0.7398 | biofilm growth: OD 630 nm at 24 hrs divided by OD of control (control = 1) (T. forsythia; 25 μmol/ml): 0.6158 | stimulation of biofilm formation of S. mutans (S. mutans; Example 3): does not stimulate | biofilm growth: OD 630 nm at 24 hrs divided by OD of control (control = 1) (S. mutans; 5 μmol/ml): 0.9767 | biofilm growth: OD 630 nm at 24 hrs divided by OD of control (control = 1) (S. mutans; 10 μmol/ml): 0.9333 | biofilm growth: OD 630 nm at 24 hrs divided by OD of control (control = 1) (S. mutans; 20 μmol/ml): 1.1068 | biofilm growth: OD 630 nm at 24 hrs divided by OD of control (control = 1) (S. mutans; 25 μmol/ml): 1.0108
